Patent US7714146B2, “Azulene-oxindole compounds as multiple-kinase inhibitors and useful as anticancer agents” (Industrial Technology Research Institute, priority 2006, dated 2010)

What was measured:
Type in all cases: biochemical
[1] = biological target: T1, human EGFR (His672-Ala1210) (Homo sapiens, UniProt P00533); assay: EGFR kinase assay (HTScan kit, DELFIA); details: for inhibition at 0.1 µM: read-out: EGFR 0.1 μM, % of inhibition relative to control; for inhibition at 1 µM: read-out: EGFR 1 μM, % of inhibition relative to control
T1 construct: human EGFR (His672-Ala1210); GST (N); purchased Cell Signaling Technology; host or cells: baculovirus expression system
Procedure: Compounds 1-100 were treated for their efficacy in inhibiting activities of FLT-3, c-KIT, KDR/Flk-1, PDGFR-beta, EGFR, and PKC kinases by biochemical DELFIA (Dissociation Enhanced Lanthanide FIA) assays according to the procedure described below. The assays were conducted by, Division of Cell Engineering, Biomedical Engineering Research Laboratories, Industrial Technology Research Institute, Bldg. 53, 195, sec. 4, Chung Hsing Rd. Chutung, Hsinchu, Taiwan 310, R.O.C.
The EGFR assay was conducted following the protocol described in Protocol for HTScan® EGFR Kinase Assay Kit (Cell Signaling Technology®). The assay was conducted under the following conditions: EGFR source: The GST-kinase fusion protein was produced using a baculovirus expression system with a construct expressing human EGFR (His672-Ala1210) (GenBank Accession No. NM_005228) with an amino-terminal GST tag, substrate: 1.5 μM This biotinylated peptide contains the residues surrounding Tyr-66 of PTP1B, vehicle: 1% DMSO, pre-incubation time/temperature: 5 minutes at room temperature, incubation time/temperature: 30 minutes at room temperature, incubation buffer: 60 mM HEPES pH 7.5, 5 mM MgCl2, 5 mM MnCl2, 3 μM Na3VO4, 1.25 mM DTT, 20 μM ATP, and quantitative method: DELFIA® Assay.

[2] = biological target: T2, human VEGFR-2 (Val789-Val1356) (Homo sapiens, UniProt P35968); assay: KDR kinase assay (HTScan VEGFR-2 kit, DELFIA); details: for inhibition at 1 µM: read-out: KDR 1 μM, % of inhibition relative to control; for inhibition at 0.1 µM: read-out: KDR 0.1 μM, % of inhibition relative to control
T2 construct: human VEGFR-2 (Val789-Val1356); GST (N); purchased Cell Signaling Technology; host or cells: baculovirus expression system
Method in brief: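 GST-tagged human VEGFR-2 (Val789-Val1356) from baculovirus, with 1.5 μM biotinylated gastrin precursor peptide and 20 μM ATP in HEPES pH 7.5, Mg/Mn, vanadate, DTT, 1% DMSO. Pre-incubation 5 min, reaction 30 min at room temperature; phosphorylation read by DELFIA.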

[3] = biological target: T3, human FLT-3 (Arg571-Ser993) (Homo sapiens, UniProt P36888); assay: FLT-3 kinase assay (HTScan kit, DELFIA); details: for inhibition at 1 µM: read-out: FLT-3 1 μM, % of inhibition relative to control; for inhibition at 0.1 µM: read-out: FLT-3 0.1 μM, % of inhibition relative to control
T3 construct: human FLT-3 (Arg571-Ser993); GST (N); purchased Cell Signaling Technology; host or cells: baculovirus expression system
T3 sequence (P36888 571-993): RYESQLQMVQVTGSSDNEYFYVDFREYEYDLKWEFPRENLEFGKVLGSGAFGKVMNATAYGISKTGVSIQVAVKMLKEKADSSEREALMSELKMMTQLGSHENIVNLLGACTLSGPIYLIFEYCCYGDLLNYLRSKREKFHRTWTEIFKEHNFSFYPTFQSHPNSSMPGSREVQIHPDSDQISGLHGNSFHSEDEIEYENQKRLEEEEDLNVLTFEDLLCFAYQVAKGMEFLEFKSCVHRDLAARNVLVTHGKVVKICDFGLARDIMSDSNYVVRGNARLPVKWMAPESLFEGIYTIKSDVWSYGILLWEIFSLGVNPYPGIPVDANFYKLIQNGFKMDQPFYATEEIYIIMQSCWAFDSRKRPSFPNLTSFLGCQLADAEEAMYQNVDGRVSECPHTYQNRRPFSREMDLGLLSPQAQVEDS
Method in brief: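 GST-tagged human FLT-3 (Arg571-Ser993, baculovirus-expressed) phosphorylated 1.5 μM biotinylated gastrin precursor peptide with 20 μM ATP in HEPES pH 7.5, Mg/Mn buffer and 1% DMSO. After 5 min preincubation, the reaction ran 30 min at room temperature. Phosphorylation was read by DELFIA.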

[4] = biological target: T4, human c-KIT (Thr544-Val976) (Homo sapiens, UniProt P10721); assay: c-KIT kinase assay (HTScan kit, DELFIA); details: for inhibition at 0.1 µM: read-out: c-KIT 0.1 μM, % of inhibition relative to control; for inhibition at 1 µM: read-out: c-KIT 1 μM, % of inhibition relative to control
T4 construct: human c-KIT (Thr544-Val976); GST (N); purchased Cell Signaling Technology; host or cells: baculovirus expression system
Method in brief: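 GST-tagged human c-KIT (Thr544-Val976) from baculovirus, with 1.5 μM biotinylated KDR Tyr-996 peptide and 20 μM ATP in HEPES pH 7.5 buffer containing Mg2+/Mn2+ and 1% DMSO. Enzyme and compound pre-incubated 5 min, reaction run 30 min at room temperature; phosphorylation detected by DELFIA.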

T2 sequence (P35968 789-1356): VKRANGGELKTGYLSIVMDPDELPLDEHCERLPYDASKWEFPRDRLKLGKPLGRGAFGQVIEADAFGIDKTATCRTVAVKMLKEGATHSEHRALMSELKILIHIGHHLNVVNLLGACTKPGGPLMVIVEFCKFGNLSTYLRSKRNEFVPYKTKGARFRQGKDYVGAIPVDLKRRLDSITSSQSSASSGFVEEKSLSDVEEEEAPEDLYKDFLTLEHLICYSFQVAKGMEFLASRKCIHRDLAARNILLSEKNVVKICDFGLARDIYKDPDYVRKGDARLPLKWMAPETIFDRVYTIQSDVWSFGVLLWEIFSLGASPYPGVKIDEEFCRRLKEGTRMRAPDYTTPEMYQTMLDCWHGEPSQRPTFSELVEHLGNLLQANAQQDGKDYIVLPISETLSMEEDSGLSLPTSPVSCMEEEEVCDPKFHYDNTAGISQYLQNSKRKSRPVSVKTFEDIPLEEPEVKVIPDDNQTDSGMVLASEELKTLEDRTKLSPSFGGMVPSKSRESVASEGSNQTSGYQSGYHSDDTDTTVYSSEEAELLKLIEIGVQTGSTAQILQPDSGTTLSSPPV
T1 sequence (P00533 672-1210): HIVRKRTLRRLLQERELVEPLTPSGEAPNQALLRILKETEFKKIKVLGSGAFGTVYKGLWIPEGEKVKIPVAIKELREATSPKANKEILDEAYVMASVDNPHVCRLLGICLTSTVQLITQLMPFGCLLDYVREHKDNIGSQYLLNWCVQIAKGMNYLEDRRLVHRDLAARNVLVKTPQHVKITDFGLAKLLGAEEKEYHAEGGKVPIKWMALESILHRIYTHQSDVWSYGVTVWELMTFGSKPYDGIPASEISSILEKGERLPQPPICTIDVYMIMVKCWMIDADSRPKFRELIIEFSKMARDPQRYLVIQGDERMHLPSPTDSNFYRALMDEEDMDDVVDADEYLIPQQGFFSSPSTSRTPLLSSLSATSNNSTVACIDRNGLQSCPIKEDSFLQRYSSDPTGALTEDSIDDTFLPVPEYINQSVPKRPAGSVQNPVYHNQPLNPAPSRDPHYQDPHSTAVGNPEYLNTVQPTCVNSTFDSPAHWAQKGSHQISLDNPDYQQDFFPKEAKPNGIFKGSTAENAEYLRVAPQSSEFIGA
T4 sequence (P10721 544-976): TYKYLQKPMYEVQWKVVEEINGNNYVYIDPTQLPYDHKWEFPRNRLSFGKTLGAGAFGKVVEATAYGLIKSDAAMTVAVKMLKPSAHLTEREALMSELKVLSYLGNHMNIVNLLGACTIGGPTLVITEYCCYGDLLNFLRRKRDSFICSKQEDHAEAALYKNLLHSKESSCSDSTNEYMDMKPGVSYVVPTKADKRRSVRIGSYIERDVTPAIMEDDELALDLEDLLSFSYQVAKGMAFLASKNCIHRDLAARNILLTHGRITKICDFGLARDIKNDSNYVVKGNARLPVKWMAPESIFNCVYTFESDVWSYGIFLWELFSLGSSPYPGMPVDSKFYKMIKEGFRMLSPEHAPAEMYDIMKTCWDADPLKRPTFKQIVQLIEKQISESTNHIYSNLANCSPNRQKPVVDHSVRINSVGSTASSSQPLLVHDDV

Row | Compound | inhibition at 0.1 µM ([1]; compound at 0.1 μM) | inhibition at 1 µM ([1]; compound at 1 μM) | inhibition at 1 µM ([2]; compound at 1 μM) | inhibition at 1 µM ([3]; compound at 1 μM) | inhibition at 0.1 µM ([4]; compound at 0.1 μM) | inhibition at 1 µM ([4]; compound at 1 μM) | inhibition at 0.1 µM ([3]; compound at 0.1 μM) | inhibition at 0.1 µM ([2]; compound at 0.1 μM) | IC50 ([3]; read-out: FLT-3 kinase inhibition (IC50)) | IC50 ([4]; read-out: c-KIT kinase inhibition (IC50)) | IC50 ([2]; read-out: KDR kinase inhibition (IC50)) | FLT-3 0.1 μM, % of inhibition relative to control ([3]; compound at 0.1 μM) | FLT-3 1 μM, % of inhibition relative to control ([3]; compound at 1 μM) | EGFR 0.1 μM, % of inhibition relative to control ([1]; compound at 0.1 μM) | EGFR 1 μM, % of inhibition relative to control ([1]; compound at 1 μM) | c-KIT 0.1 μM, % of inhibition relative to control ([4]; compound at 0.1 μM) | c-KIT 1 μM, % of inhibition relative to control ([4]; compound at 1 μM) | KDR 0.1 μM, % of inhibition relative to control ([2]; compound at 0.1 μM) | KDR 1 μM, % of inhibition relative to control ([2]; compound at 1 μM)
1 | CN(C)c1nc2cccccc-2c1/C=C1/C(=O)Nc2ccccc21 [Compound 35, 3-(2-Dimethylamino-cyclohepta[b]pyrrol-3-ylmethylene)-1,3-dihydro-indol-2-one, with propan-2-ol] | 9.5% | 12.1% | 20.3% |  |  |  |  |  |  |  |  |  |  |  |  |  |  |  | 
2 | Cc1cc(/C=C2/C(=O)Nc3ccccc32)c2cccccc1-2 [Compound 36, 3-(3-Methyl-azulen-1-ylmethylene)-1,3-dihydro-indol-2-one] | 9.6% | 10.9% | 0.3% | 39.3% | 49.2% | 49.2% |  |  |  |  |  |  |  |  |  |  |  |  | 
3 | O=C1Nc2ccc(F)cc2/C1=C\c1cc(Br)c2cccccc1-2 [Compound 51, 3-(3-Bromo-azulen-1-ylmethylene)-5-fluoro-1,3-dihydro-indol-2-one] |  | 11.5% | 26.4% | 82.6% | 73.9% | 73.9% | 38.4% |  |  |  |  |  |  |  |  |  |  |  | 
4 | O=C1Nc2ccc(F)cc2/C1=C/c1cc(Cl)c2cccccc1-2 [Compound 46, 3-(3-Chloro-azulen-1-ylmethylene)-5-fluoro-1,3-dihydro-indol-2-one] | 11% | 18.5% | 33.2% | 73.5% | 70.9% | 70.9% | 45.9% | 10% |  |  |  |  |  |  |  |  |  |  | 
5 | Cc1cc(/C=C2\C(=O)Nc3ccc(F)cc32)c2cccccc1-2 [Compound 39, 5-Fluoro-3-(3-methyl-azulen-1-ylmethylene)-1,3-dihydro-indol-2-one] | 6.1% | 14.1% | 20.2% | 93.2% | 80.1% | 80.1% | 45.6% |  | 491 nM | 128 nM | 6380 nM |  |  |  |  |  |  |  | 
6 | O=C1Nc2ccccc2/C1=C/c1cc2cccccc-2c1 [Compound 33, 3-Azulen-2-ylmethylene-1,3-dihydro-indol-2-one] | 15.2% | 13% | 50.8% | 85.6% | 63.1% | 63.1% | 50.5% | 24.6% |  |  |  |  |  |  |  |  |  |  | 
7 | Cc1cc(C=C2C(=O)Nc3ccccc32)c2cccccc1-2 [Compound 37, 3-(3-Methyl-azulen-1-ylmethylene)-1,3-dihydro-indol-2-one] | 2.9% | 13.6% | 27.6% | 61.5% | 53.2% | 53.2% | 5.9% |  |  |  |  |  |  |  |  |  |  |  | 
8 | O=C1Nc2ccc(F)cc2/C1=C/c1cc(Br)c2cccccc1-2 [Compound 45, 3-(3-Bromo-azulen-1-ylmethylene)-5-fluoro-1,3-dihydro-indol-2-one] | 2.5% |  | 41.9% | 69.7% | 73.9% | 73.9% | 51.4% | 32.8% |  |  |  |  |  |  |  |  |  |  | 

Next, values leading:

Row | inhibition at 0.1 µM ([1]; compound at 0.1 μM) | inhibition at 1 µM ([1]; compound at 1 μM) | inhibition at 1 µM ([2]; compound at 1 μM) | inhibition at 1 µM ([3]; compound at 1 μM) | inhibition at 0.1 µM ([4]; compound at 0.1 μM) | inhibition at 1 µM ([4]; compound at 1 μM) | inhibition at 0.1 µM ([3]; compound at 0.1 μM) | inhibition at 0.1 µM ([2]; compound at 0.1 μM) | IC50 ([3]; read-out: FLT-3 kinase inhibition (IC50)) | IC50 ([4]; read-out: c-KIT kinase inhibition (IC50)) | IC50 ([2]; read-out: KDR kinase inhibition (IC50)) | FLT-3 0.1 μM, % of inhibition relative to control ([3]; compound at 0.1 μM) | FLT-3 1 μM, % of inhibition relative to control ([3]; compound at 1 μM) | EGFR 0.1 μM, % of inhibition relative to control ([1]; compound at 0.1 μM) | EGFR 1 μM, % of inhibition relative to control ([1]; compound at 1 μM) | c-KIT 0.1 μM, % of inhibition relative to control ([4]; compound at 0.1 μM) | c-KIT 1 μM, % of inhibition relative to control ([4]; compound at 1 μM) | KDR 0.1 μM, % of inhibition relative to control ([2]; compound at 0.1 μM) | KDR 1 μM, % of inhibition relative to control ([2]; compound at 1 μM) | Compound
9 | 8.8% | 10.8% | 13.6% | 24.3% | 8.3% | 8.3% | 8.9% | 6% |  |  |  |  |  |  |  |  |  |  |  | O=C1Nc2c(Cl)cccc2/C1=C/c1ccc2cccccc1-2 [Compound 42, 3-Azulen-1-ylmethylene-7-chloro-1,3-dihydro-indol-2-one]
10 | 4.7% | 9.3% | 38.4% | 8.2% | 7.2% | 7.2% | 5.7% |  |  |  |  |  |  |  |  |  |  |  |  | COc1ccc2c(c1)/C(=C/c1ccc3cccccc1-3)C(=O)N2 [Compound 44, 3-Azulen-1-ylmethylene-5-methoxy-1,3-dihydro-indol-2-one]
11 |  |  |  |  |  |  |  |  |  |  |  | 4.0% | 29.6% | 7.9% | 10.4% | 19.5% | 19.5% | 22.3% | 25.8% | CN(C)S(=O)(=O)c1ccc2c(c1)/C(=C/c1ccc3cccccc1-3)C(=O)N2 [Compound 50, (3Z)-3-(((3aZ,5Z,7Z)-azulen-1-yl)methylene)-5-(N,N-dimethylsulfonyl)indolin-2-one]
12 | 0.8% | 1.7% | 8.4% | 79% | 72.6% | 72.6% | 40.5% | 2.3% |  |  |  |  |  |  |  |  |  |  |  | Cc1cc(/C=C2/C(=O)Nc3ccc(F)cc32)c2cccccc1-2 [Compound 38, 5-Fluoro-3-(3-methyl-azulen-1-ylmethylene)-1,3-dihydro-indol-2-one]
13 | 8.3% | 14.6% | 34% | 48.6% | 30.7% | 30.7% | 0.5% | 7.8% |  |  |  |  |  |  |  |  |  |  |  | Cc1ccc2c(c1)/C(=C\c1ccc3cccccc1-3)C(=O)N2 [Compound 47, 3-Azulen-1-ylmethylene-5-methyl-1,3-dihydro-indol-2-one]
14 | 6.2% | 11.9% | 6.8% | 24.3% | 14.7% | 14.7% |  |  |  |  |  |  |  |  |  |  |  |  |  | COc1ccc2c(c1)/C(=C\c1ccc3cccccc1-3)C(=O)N2 [Compound 43, 3-Azulen-1-ylmethylene-5-methoxy-1,3-dihydro-indol-2-one]
15 | 6.1% | 11.7% | 18.2% | 1.9% |  |  | 0.8% | 8.9% |  |  |  |  |  |  |  |  |  |  |  | O=C1Nc2ccc(-c3ccccc3)cc2/C1=C/c1ccc2cccccc1-2 [Compound 34, 3-Azulen-1-ylmethylene-5-phenyl-1,3-dihydro-indol-2-one]
16 | 7.8% | 10.4% | 13.8% | 61.6% | 32.2% | 32.2% | 4.5% |  |  |  |  |  |  |  |  |  |  |  |  | Cc1ccc2c(c1)/C(=C/c1ccc3cccccc1-3)C(=O)N2 [Compound 48, 3-Azulen-1-ylmethylene-5-methyl-1,3-dihydro-indol-2-one]
